Measurements taken from patent US6825191B2, “Benzodiazepine derivatives” (Ajinomoto Co., Inc., priority 2000, dated 2004).

Tests used:
human thrombin = target: T1, human thrombin (Homo sapiens, UniProt P00734); assay: Determination of thrombin-inhibiting activity (chromogenic substrate S-2238, initial rate); format: biochemical; conditions: negative logarithm of concentration inhibiting 50% of initial rate, tris hydrochloride buffer pH 8.4, room temperature; for IC50: read-out: Thrombin-inhibiting activity (pIC50) (converted)
T1 construct: solution of human thrombin (a product of SIGMA Co.); purchased SIGMA Co
Method: Determination of Thrombin-inhibiting Activity
130 μL of 100 mM tris hydrochloride buffer adjusted to pH 8.4 was added to 10 μl of an aqueous solution of a test compound. Then 10 μl of a solution of human thrombin (a product of SIGMA Co.) adjusted to 2 units/ml with tris hydrochloride buffer of pH 8.4 was added to the resultant mixture. After the incubation at room temperature for 10 minutes, 50 μl of a solution of D-phenylalanine-L-pipecolyl-L-arginine-P-nitroanilide dihydrochloride (S-2238; a product of Daiichi Kagaku Yakuhin Co.) adjusted to 0.4 mM with tris hydrochloride buffer of pH 8.4 was added thereto. The absorbance was determined and then the initial reaction rate was determined. A control was prepared in the same manner as that described above except that the solution of the compound to be tested was replaced with 10 μl of tris hydrochloride buffer adjusted to pH 8.4. The absorbance was determined with MICROPLATE READER Model 3550-UV (a product of BIO RAD) at a wave length of 405 nm at intervals of 15 seconds for 16 minutes. The negative logarithm (pIC50) of a concentration of the test compound which inhibits 50% of the activity (initial rate) of the thrombin in the absence of the test compound was determined, and employed as the index of the activity of inhibiting thrombin.

[1] = target: T2, activated human blood coagulation factor X (Homo sapiens, UniProt P00742); assay: Determination of activity of inhibiting the activated blood-coagulation factor X (chromogenic substrate, initial rate); format: biochemical; conditions: negative logarithm of concentration inhibiting 50% of initial rate, tris hydrochloride buffer pH 8.4, room temperature; for IC50: read-out: Activity of inhibiting activated blood coagulation factor X (pIC50) (converted)
T2 construct: purchased Enzyme Research Co
T2 sequence (P00742 235-488 limits assumed): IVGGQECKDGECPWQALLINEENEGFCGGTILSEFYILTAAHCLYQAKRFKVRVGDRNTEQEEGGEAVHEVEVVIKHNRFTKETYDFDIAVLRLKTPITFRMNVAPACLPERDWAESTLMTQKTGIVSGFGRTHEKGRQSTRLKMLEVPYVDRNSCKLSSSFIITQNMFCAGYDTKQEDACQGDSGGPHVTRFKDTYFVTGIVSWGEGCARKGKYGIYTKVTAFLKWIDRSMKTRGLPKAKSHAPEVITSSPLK
T2 sequence (P00742 41-179 partner limits assumed): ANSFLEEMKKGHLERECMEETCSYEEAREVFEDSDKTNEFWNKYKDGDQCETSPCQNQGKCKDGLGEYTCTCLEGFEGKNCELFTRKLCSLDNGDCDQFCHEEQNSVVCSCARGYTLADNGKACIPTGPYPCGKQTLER
Method: Determination of Activity of inhibiting the Activated Blood-coagulation Factor X
130 μl of 100 mM tris hydrochloride buffer adjusted to pH 8.4 was added to 10 μl of an aqueous solution of a compound to be tested. Then 10 μl of a 0.5 unit/ml solution of activated human blood coagulation factor X (a product of Enzyme Research Co.) in tris hydrochloride buffer of pH 8.4 was added to the resultant mixture. After the incubation at room temperature for 10 minutes, 50 μl of a solution of N-benzoyl-L-isoleucyl-L-glutamyl-glycyl-L-arginyl-P-nitroanilide hydrochloride (a product of Peptide Institute Inc.) adjusted to 0.8 mM with tris hydrochloride (pH 8.4) was added thereto. The a absorbance was determined and then the initial reaction rate was determined. A control was prepared in the same manner as that described above except that the solution of the compound to be tested was replaced with 10 μl of tris hydrochloride buffer adjusted to pH 8.4. The absorbance was determined with MICROPLATE READER Model 3550-UV (a product of BIO RAD) at a wave length of 405 nm at intervals of 15 seconds for 16 minutes.

blood plasma = assay: Determination of blood anticoagulating activity by prothrombin time (PT) determination method; format: biochemical, human; conditions: negative logarithm of concentration which elongated PT of the control to twice as long; blood plasma of healthy people
Method: Determination of Blood Anticoagulating Activity
The blood anticoagulating activity was determined by a prothrombin time (PT) determination method. The PT was determined as follows: The blood was taken from healthy people. 3.8% aqueous trisodium citrate solution was added to the blood in a volume ratio of 1:10. The blood plasma was separated by the centrifugation. 5 μl of DMSO solution containing a test compound was added to 45 μl of the blood plasma. After the incubation apt room temperature for 2 minutes, a test tube containing the blood plasma solution was placed in Sysmex CA-3000 fully automatic blood coagulation determination device (a product of Toa Medical Electronics Co., Ltd), and incubated at 37° C. for 3 minutes. 100 μl of Sysmex PT II (rabbit brain tissue thromboplastin, 13.2 mM calcium chloride; a product of Toa Medical Electronics Co., Ltd) was fed into the test tube. PT was automatically determined with the device. A sample containing 5 μl of DMSO in place of the solution of the test compound was used as the control. The negative logarithm (pPT2) of the concentration of the test compound which elongated PT of the control to the twice as long was determined, and employed as the index of the blood anticoagulating activity.

SMILES | IC50 (human thrombin) [nM] | IC50 [1] [nM] | Thrombin-inhibiting activity (pIC50) (human thrombin) | Activity of inhibiting activated blood coagulation factor X (pIC50) [1] | Human blood anticoagulating activity (pPT2) (blood plasma)
O=C(O)C(F)(F)F.O=C(c1ccc(Br)s1)N1CC(=O)N(CC2CCN(c3ccncc3)CC2)c2ccccc2C1 [Compd. of Ex. 25, 4-(5-bromothiophene-2-carbonyl)-1-[1-(4-pyridyl)-4-piperidylmethyl]-1,3,4,5-tetrahydrobenzo[e][1,4]diazepin-2-on trifluoroacetate] | > 100000 | 398 |  |  | 4.9
O=C(O)C(F)(F)F.O=C(c1ccc(Cl)cc1)N1CC(=O)N(CC2CCN(C3CCCCC3)CC2)c2ccccc2C1 [Compd. of Ex. 143, 4-(4-chlorobenzoyl)-1-[(1-cyclohexyl-4-piperidinyl)methyl]-1,3,4,5-tetrahydrobenzo[e][1,4]diazepin-2-on mono(trifluoroacetate)] | 63100 | 316 |  |  | 5.4
O=C(c1ccc(CN2C(=O)CN(C(=O)c3ccc(Cl)cc3)Cc3ccc(CCP(=O)(O)O)cc32)cc1)N1CCCC1 [Compd. of Ex. 71-1, [2-(4-(4-chlorobenzoyl)-2-oxo-1-(4-(1-pyrrolidinecarbonyl)benzyl)-2,3,4,5-tetrahydro-1H-benzo[e][1,4]-diazepin-8-yl)ethyl]phosphonic acid] | 31600 | 25.1 |  |  | 5.0
CC(=N)N1CCC(Oc2ccc(CN3C(=O)CN(C(=O)c4ccc(Cl)cc4)Cc4ccc(C(=O)O)cc43)cc2)CC1.O=C(O)C(F)(F)F [Compd. of Ex. 43, 4-(4-chlorobenzoyl)-2-oxo-1-[4-(1-(1-acetimidoyl)-4-piperidyloxy)benzyl]-2,3,4,5-tetrahydro-1H-benzo[e][1,4]-diazepine-8-carboxylic acid trifluoroacetate] |  |  | <4.0 | 6.9 | 5.2
N=C(c1ccc(CN2C(=O)CN(C(=O)c3ccc(Cl)cc3)Cc3ccccc32)cc1)N1CC=CC1.O=C(O)C(F)(F)F [Compd. of Ex. 107, 4-(4-chlorobenzoyl)-1-[4-(2,5-dihydro-1H-pyrrol-1-yl(imino)methyl)benzyl]-1,3,4,5-tetrahydrobenzo[e][1,4]-diazepin-2-on trifluoroacetate] | > 100000 | 50.1 |  |  | 5.5

Further lines, with some results ahead:

IC50 (human thrombin) [nM] | IC50 [1] [nM] | Thrombin-inhibiting activity (pIC50) (human thrombin) | Activity of inhibiting activated blood coagulation factor X (pIC50) [1] | SMILES | Human blood anticoagulating activity (pPT2) (blood plasma)
> 100000 | 79.4 |  |  | O=C(O)C(F)(F)F.O=C(c1ccc(CN2C(=O)CN(C(=O)c3ccc(Cl)cc3)Cc3ccccc32)nc1)N1CC=CC1 [Compd. of Ex. 181, 4-(4-chlorobenzoyl)-1-[(5-(2,5-dihydro-1H-pyrrol-1-ylcarbonyl)-2-pyridinyl)methyl]-1,3,4,5-tetrahydrobenzo[e][1,4]-diazepin-2-on trifluoroacetate] | 5.3
> 100000 | 31.6 |  |  | CN1CC[N+](C)=C1c1ccc(CN2C(=O)CN(C(=O)c3ccc(Cl)cc3)Cc3c(Cl)cccc32)cc1.O=C([O-])C(F)(F)F [Compd. of Ex. 207, 6-chloro-4-(4-chlorobenzoyl)-1-[4-(1,3-dimethyl-4,5-dihydro-1H-imidazol-3-ium-2-yl)benzyl]-1,3,4,5-tetrahydro-benzo[e][1,4]diazepin-2-on trifluoroacetate] | 5.7
 |  | <4.0 | 7.1 | CN1CC[N+](C)=C1N1CCC(CCN2C(=O)CN(C(=O)c3ccc(Cl)cc3)Cc3ccccc32)CC1.O=C([O-])C(F)(F)F [Compd. of Ex. 178, 4-(4-chlorobenzoyl)-1-[2-(1-(1,3-dimethyl-4,5-dihydro-1H-imidazo-3-ium-2-yl)-4-piperidinyl)ethyl]-1,3,4,5-tetra-hydrobenzo[e][1,4]diazepin-2-on trifluoroacetate] | 5.8
